The source of these data is ChEMBL document CHEMBL5113378, “Role of basic aminoalkyl chains in the lead optimization of Indoloquinoline alkaloids” (Eur J Med Chem, 2022).

Molecules are shown by their SMILES.

Series [1] can be described thus: Selectivity index, ratio of IC50 for rat L6 cells to IC50 for Plasmodium falciparum NF54. Type of series: toxicity. The note with it: read-out: Ratio IC50.
Series [2] concerns Hemozoin. Kind of series: Inhibition of beta-hematin formation.
Series [3] in a line: Selectivity index, ratio of IC50 for human MRC5 to IC50 for Plasmodium falciparum Ghana. It counts as toxicity. As to conditions: MRC5 cells, read-out: Ratio IC50.
The nature of series [4]: Selectivity index, ratio of IC50 for rat L6 cells to IC50 for Plasmodium falciparum K1. The note with it: read-out: Ratio IC50. It counts as toxicity.
The target of another series is DNA. Kind of series: Binding affinity to DNA (unknown origin) assessed as DNA intercalation by measuring amount of methyl green by spectrophotometry. Type of series: nucleic-acid assay, Homo sapiens.
Series [5] concerns Plasmodium falciparum. Kind of series: Antimalarial activity against erythrocytic Plasmodium falciparum NF54 assessed as parasite growth inhibition incubated for 48 hrs by [3H]-hypoxanthine incorporation assay. Type of series: functional, organism-based.
Series [6] can be described thus: Cytotoxicity against rat L6 cells assessed as cell growth inhibition incubated for 70 hrs by alamar blue staining based microscopy. It counts as toxicity. (In general: Resazurin is reduced to fluorescent resorufin, in cell work by metabolically active cells.)
Series [7] in a line: Resistance index, ratio of IC50 for erythrocytic Plasmodium falciparum K1 to IC50 for erythrocytic Plasmodium falciparum NF54.
In series [8] the test system is Plasmodium falciparum. Kind of series: Antimalarial activity against erythrocytic chloroquine/pyrimethamine resistant Plasmodium falciparum K1 assessed as parasite growth inhibition incubated for 48 hrs by [3H]-hypoxanthine incorporation assay. Type of series: functional, organism-based.
The nature of series [9]: Selectivity index, ratio of IC50 for rat L6 cells to IC50 for erythrocytic Plasmodium falciparum K1. It counts as toxicity. The note with it: read-out: Ratio IC50.
Series [10] concerns Hemozoin. Kind of series: Inhibition of detergent-mediated beta-hematin formation incubated for 5 to 6 hrs by absorbance based assay.
Series [11] is described as follows: Selectivity index, ratio of IC50 for rat L6 cells to IC50 for erythrocytic Plasmodium falciparum NF54. Type of series: toxicity. The note with it: read-out: Ratio IC50.
Another series concerns Plasmodium berghei. Nature of the series: Antimalarial activity against erythrocytic Plasmodium berghei ANKA infected in NMRI mouse assessed as reduction in parasitemia at 40 mg/kg, ip administered for 4 consecutive days measured after 24 hrs post last dose by FACS analysis relative to control. More on the design: scale not given: the % may be the effect or the level left. Type of series: functional.

Usually IC50 stands for the point on the concentration scale where inhibition reaches its midpoint. For the molecule `Cn1c2nc3ccccc3c-2cc2ccccc21` [NEOCRYPTOLEPINE], the selectivity ratio stood at 2 in series [1], 0.4 in [3] and 1.9 in series [4]. The IC50 worked out at 5.97 µM in the series on Hemozoin [2] and 93 µM at DNA.

Turning to `C[C@H]1[C@H](OC(=O)CCC(=O)NCCCNc2c3ccccc3[n+](C)c3[nH]c4ccccc4c23)O[C@@H]2O[C@@]3(C)CC[C@H]4[C@H](C)CC[C@@H]1[C@@]24OO3`, the IC50 worked out at 0.00045 µM with Plasmodium falciparum [5], 0.00042 µM in the series with Plasmodium falciparum [8] and 222 µM in the series on Hemozoin [10]. For the same molecule, the IC50 at 70 h in series [6] amounted to 1.53 µM. The Ratio IC50 in series [7] turned out to be 0.93. For the same molecule, the selectivity ratio in series [9] came out at 3640; in series [11] it was 3400. Further, in the series with Plasmodium berghei, the Activity is on record as 89.6%.
